Experimental data taken from a melting point compilation (Tetko et al.).

| Compound | melting point [°C] |
| --- | --- |
| O=C(O)CNC(=O)c1ccc([N+](=O)[O-])cc1 | 130 |
| ClC1=C(Cl)C2(Cl)C3C4OC4C(Cl)C3C1(Cl)C2(Cl)Cl (stereo unspecified) | 160 |
| NNC(N)=S | 183 |
| Cn1cnc(C(=O)O)c1 | 245 |
| O=C1CCc2ccc(O)cc2N1 | 232 |
| CCN(CC)CCN1C(=O)CN=C(c2ccccc2F)c2cc(Cl)ccc21 | 79.5 |
| CCc1cc2c(cc1C(C)=O)C(C)(C)CCC2(C)C | 46.5 |
| Cc1c(C)c2c(c(C)c1O)CCC(C)(C(=O)O)O2 (stereo unspecified) | 189 |
| O=C=Nc1ccccc1 | -31.3 |
| Nc1cc(C(F)(F)F)cc(C(F)(F)F)c1Br | 35 |
| CC(CCC(=O)O)C1CCC2C3C(O)CC4CC(O)CCC4(C)C3CCC12C (stereo unspecified) | 203 |
| CC(C)(C)SC(C)(C)C | -9 |
| FC(F)(F)c1nn(CN2CCN(Cn3nc(C(F)(F)F)n(N=Cc4ccc5c(c4)OCO5)c3=S)CC2)c(=S)n1N=Cc1ccc2c(c1)OCO2 | 156 |
| O=C1CCc2cc(Br)ccc2C1 | 70 to 76 |
| CC12CCC3C(CCC(CC(=O)O)C3(C)CC(=O)O)C1CCC2=O (stereo unspecified) | 223 to 224 |
| CC(=O)N1C(=O)N(C(C)=O)C2C1N(C(C)=O)C(=O)N2C(C)=O (stereo unspecified) | 234 to 238 |
| COc1ccc(C(C#N)C(C)=O)c(Cl)c1 (stereo unspecified) | 79 |
| CC(=O)c1ccc2c(c1)OCO2 | 86 to 89 |
| Nc1ccc(N)c2c1C(=O)c1c(N)ccc(N)c1C2=O | 285 |
| O=C1C=C2C=C[C@@H]3C[C@@]2(O1)[C@H]1CCCCN31 | 142 |

| Compound | melting point [°C] |
| --- | --- |
| NC(=O)CCC(N)=O | 260 to 265 |
| O=C(O)C(=O)c1ccc([N+](=O)[O-])cc1 | 110 |
| O=c1[nH]nc([N+](=O)[O-])c(Cl)c1Cl | 184 to 186 |
| OCCCCCCCCCCCBr | 46 |
| Oc1cc(Br)ccn1 | 203 |
| Sc1nnc(SCCSc2nnc(S)s2)s1 | 202 to 204 |
| CCCCCCCCCCCI | 2 |
| C1CNCCNCCNCCN1 | 108 to 113 |
| NS(=O)(=O)c1cc(C(=O)O)c(Cl)cc1Cl | 230 to 234 |
| O=C1CNCCN1 | 132 |
| C=C1C(C)CCC2(C)C3=C(C(=O)C4(CC4C)C(OC(C)=O)C3=O)C(OC(C)=O)C(OC(C)=O)C12 (stereo unspecified) | 173 |
| O=C(O)c1c(O)ccc(F)c1F | 183 |
| CCCCCCc1ccc2c(c1)CCC2 | -34 |
| S=C=Nc1cc(Cl)cc(Cl)c1 | 46 |
| CCOC(=O)c1c(N)sc2c1CCCC2 | 116 |
| CCOC(=O)CNc1cc(Cl)c([N+](=O)[O-])cc1[N+](=O)[O-] | 146 |
| C=C[Si](OC(C)=O)(OC(C)=O)OC(C)=O | 7 |
| OCc1csc(N2CCOCC2)n1 | 118 to 120 |
| Cc1ccc(N=C2NCCN2)c(Cl)c1 | 149 |
| ClC(Br)C(Cl)Br (stereo unspecified) | -26 |

| Compound | melting point [°C] |
| --- | --- |
| COC(=O)c1cocc1C(=O)OC | 42 to 47 |
| O=[N+]([O-])c1ccc(C=Cc2cccc(/C=C\c3ccc([N+](=O)[O-])cc3[N+](=O)[O-])c2)c([N+](=O)[O-])c1 | 243 |
| Cc1c(C)c(CCl)c(C)c(C)c1CCl | 194 |
| O=C(O)c1cc(F)c(F)c(F)c1F | 88 to 89 |
| CCCCCCCCCCCCCCCC(=O)NCCO | 98.5 |
| Cn1ccnc1 | -6 |
| COc1cc(C=Cc2cc(/C=C/c3ccc(O)c(OC)c3)c([N+](=O)[O-])cc2[N+](=O)[O-])ccc1O | 251 |
| c1ccc(-c2c3ccccc3c(-c3ccccc3)c3c(-c4ccccc4)c4ccccc4c(-c4ccccc4)c23)cc1 | 332 |
| O=C1C(=Cc2ccc(Cl)cc2)SC(=S)N1CNc1ccc([N+](=O)[O-])cc1 | 216 to 217 |
| Cc1ccc(S(=O)(=O)NC(=O)NC2CCCCC2)cc1 | 175 |
| O=C(N=c1sc(C(=O)c2cccs2)nn1-c1ccccc1[N+](=O)[O-])c1ccccc1 | 239 |
| CC1(c2ccc(Oc3ccccc3)cc2)OC(=O)N(Nc2ccccc2)C1=O (stereo unspecified) | 142 |
| FC(Cl)C(F)(F)C(F)(F)Cl (stereo unspecified) | -97 |
| Cc1cc(C(=O)Cl)nn1C | 73 to 74 |
| O=c1c(I)cn(CC(O)CO)cc1I (stereo unspecified) | 161 |
| CC(=O)c1ccc(N2CCCC2)cc1 | 129 |
| CCOC(=O)c1csc(C2CCN(C(=O)OC(C)(C)C)CC2)n1 | 71 to 73 |
| Cc1c(C)c(C)c(CCl)c(CCl)c1C | 135 |

Continued, values first:

| melting point [°C] | Compound |
| --- | --- |
| 198 to 202 | O=CC(C=O)c1ccc2ccccc2n1 |
| 153 | CC(C)(C=O)C(c1ccccc1)C(C(=O)O)C(=O)O (stereo unspecified) |
| 78.5 | CNS(=O)(=O)c1ccc(C)cc1 |
| 201 to 204 | CN(C)c1ccc(C2CC(=O)CC(=O)C2)cc1 |
| 143 | N=C(N)NC(=N)Nc1ccccc1 |
| 217 | O=C(O)C1c2ccccc2Oc2ccccc21 |
| 39 | O=C(CC(=O)C(F)(F)F)c1ccccc1 |
| 211 to 214 | O=C(c1c[nH]c2ccccc12)C(F)(F)F |
| 45 | C#Cc1ccc(Cl)cc1 |
| 270 | CC1CCc2cc3c(cc2N1C(=O)c1ccccc1)CCC(C)N3C(=O)c1ccccc1 (stereo unspecified) |
| 67 to 70 | COC(=O)c1cc(OCc2ccccc2)cc(OCc2ccccc2)c1 |
| 80 to 80.5 | O=C(Cl)c1cccc(-c2nccs2)c1 |
| 96 to 100 | O=Cc1ccc2cccc(O)c2n1 |
| 26 | Nc1ccccc1S |
| 184 | CC(=O)C(=NNc1cccc([N+](=O)[O-])c1)C(C)=O |
| 267 to 269 | Cc1noc(-c2ccc(C(=O)O)cc2)n1 |
| 140 | ON=C(c1ccc(F)cc1)c1ccc(F)cc1 |
| 94 to 97 | OCc1nccn1Cc1ccccc1 |
| 88 to 89 | Cn1nc(-c2ccccc2)cc1C(=O)Cl |
| 20 | CC(O)c1ccccc1 (stereo unspecified) |
| 129 to 131 | NC(=S)Cc1ccc(Cl)cc1 |
| 37 | Cc1ccn(-c2ccccc2)n1 |
| 107 to 108 | CN(N)c1cnc2ccccc2n1 |

| melting point [°C] | Compound |
| --- | --- |
| 282 | Cc1ccc(NC=C2C(=O)NN=C2c2c(O)c3ccccc3n(C)c2=O)cc1 |
| 95 | Cc1ccc(S(=O)c2ccc(C)cc2)cc1 |
| 119 to 120 | COc1ccc(C(=O)C=Cc2ccc(-c3ccccc3[N+](=O)[O-])o2)cc1OC |
| 210 to 212 | O=[N+]([O-])c1ccc2nc(C(Cl)(Cl)Cl)[nH]c2c1 |
| 120 to 130 | Cn1cnc2c(NCc3ccccc3)nc(NCCO)nc21 |
| 132 | O=C1C(=O)c2ccccc2CCc2ccccc21 |
| 81.5 to 83 | O=C1Cc2cccc(Br)c21 |
| 61.5 | Fc1c(F)c(F)c(P(c2ccccc2)c2c(F)c(F)c(F)c(F)c2F)c(F)c1F |
| 157 to 158 | O=C(O)/C(=C/c1ccccc1)Cc1ccccc1 |
| 76 | COc1ccc(COC(=O)NN)cc1 |
| 138 to 141 | Cc1ccc(Sc2ccc(C=O)cc2[N+](=O)[O-])cc1 |
| 144 to 146 | CC(=O)Nc1ccc(C(F)(F)F)cc1Br |
| 118 | O=C(c1ccc2c3c(cccc13)CC2)C(Br)c1ccccc1 (stereo unspecified) |
| 324 to 326 | Cc1cc(C)c2c(=O)n(-c3ccc(Cl)cc3)c(S)nc2n1 |
| 78 to 79 | N#CCc1ccc(OCc2c(F)cccc2Cl)cc1 |
| 250 | COC(=O)Nc1nc2cc(C(=O)C3CC3)ccc2[nH]1 |
| 66 to 67 | COc1ccccc1-c1nc(CCl)no1 |
| 8.1 | COc1ccc(OC)c(Cl)c1 |
| 62 to 66 | OCC[C@@H](O)c1ccccc1 |
| 140 to 141 | O=C(CBr)c1cc2cc(Br)ccc2o1 |
| 148 | CN(C)c1ccc(N=c2cc(-c3ccccc3)cc(-c3ccccc3)s2)cc1 |
| 160 to 166 | CCOC(=O)C1=C(C)OC(N)=C(C#N)C1c1ccc2c(c1)CCO2 (stereo unspecified) |
| 154 | Cc1cc([N+](=O)[O-])ccc1C(=O)O |

| melting point [°C] | Compound |
| --- | --- |
| 96 | CC(=O)Oc1ccccc1C(=O)Oc1ccccc1 |
| 136 | O=C1c2ccccc2N(C(=O)CN2CCOCC2)CN1c1ccccc1 |
| 108 to 109 | O=Cc1ccc(-c2ncccn2)cc1 |
| 62 to 65 | Cc1ccc2nc(C(F)(F)F)cc(Cl)c2c1 |
| 108 to 111 | O=Cc1cnc2ccccc2n1 |
| 197 | O=C(O)Cc1nn(Cc2nc3cc(C(F)(F)F)ccc3s2)c(=O)c2ccccc12 |
| 76 to 78 | CC(C)Cc1ccc(C(C)C(=O)NN)cc1 (stereo unspecified) |
| 91 | CN(N)c1ccc(Cl)cc1[N+](=O)[O-] |
| 74 to 76 | OCc1ccc(N2CCOCC2)nc1 |
| 304 to 307 | O=C(O)c1csc(-c2ccncc2)n1 |
| 239 to 240 | COc1ccccc1-c1nnc2n1CN(c1ccccc1C)CS2 |
| 69 | COC(=O)c1cccc([N+](=O)[O-])c1C(=O)OC |
| 136 to 137 | Oc1cc(C(F)(F)F)nc2c(Br)cccc12 |
| 121 | COc1cc(C(=O)NCCCCCC(=O)O)cc(OC)c1OC |
| 138 to 140 | Cc1nc2scc(-c3ccccc3)c2c(=O)n1NC(=O)c1ccc(F)cc1 |
| 205 to 210 | CCOC(=O)c1c[nH]c2c(F)cccc2c1=O |
| 46 | CC(c1ccccc1)C(C)(C)O (stereo unspecified) |
| 156 to 157 | O=C1CCc2cccc(O)c2C1 |
| 127 | Cc1cc2c(o1)-c1c(oc3ccc(Br)cc13)CCC2(C)c1ccccc1 (stereo unspecified) |
| 63 | COC(=O)c1cc(Br)cc(Br)c1 |
| 44.5 | Fc1ccc(C(c2ccc(F)cc2)C(Cl)(Cl)Cl)cc1 |
| 139 to 141 | O=Cc1c(Sc2ccc(Cl)cc2)nc2sccn12 |
